The record followed here is publication PMC5061470, “Promiscuous targeting of bromodomains by bromosporine identifies BET proteins as master regulators of primary transcription response in leukemia” (Science Advances, 2016).

The subject of one test is GABA transporter. Type of test: binding.
For test [1], the system named is K562. Nature of the test: Genome-wide expression analysis / MetaCore, GSEA. Type of test: cell-based, human. The conditions noted are these: K562, 6-hour treatment, 500 nM.
Test [2] deals with MV4;11. As to the kind of experiment: Genome-wide expression analysis / MetaCore, GSEA. Type of test: cell-based, human. The conditions noted are these: MV4;11, 6-hour treatment, 500 nM.
A further test deals with Cl- channel (GABA-gated). Type of test: binding.
In a further test the target is Ca2+ channel (N) (Rattus norvegicus, UniProt Q02294). As to the kind of experiment: biochemical. Type of test: binding.
For test [3], the system named is MV4;11. Nature of the test: cells. The format is cell-based, human. The settings on record: read-out: IC50, cell proliferation.
The subject of the next test is KASUMI-1. Nature of the test: cells. The settings on record: read-out: IC50, cell proliferation. Type of test: cell-based, human.
A further test has as its system OCI-AML3. Nature of the test: cells. The format is cell-based, human. The settings on record: read-out: IC50, cell proliferation.
For test [4], the system named is K562. Type of test: cell-based, human.
In test [5] the test system is K562. Type of test: cell-based, human. This is another data set of the same source.
Test [6] relates to MV4;11. The format is cell-based, human.

Ca2+ channel (N), sequence (Q02294 whole entry, looked up): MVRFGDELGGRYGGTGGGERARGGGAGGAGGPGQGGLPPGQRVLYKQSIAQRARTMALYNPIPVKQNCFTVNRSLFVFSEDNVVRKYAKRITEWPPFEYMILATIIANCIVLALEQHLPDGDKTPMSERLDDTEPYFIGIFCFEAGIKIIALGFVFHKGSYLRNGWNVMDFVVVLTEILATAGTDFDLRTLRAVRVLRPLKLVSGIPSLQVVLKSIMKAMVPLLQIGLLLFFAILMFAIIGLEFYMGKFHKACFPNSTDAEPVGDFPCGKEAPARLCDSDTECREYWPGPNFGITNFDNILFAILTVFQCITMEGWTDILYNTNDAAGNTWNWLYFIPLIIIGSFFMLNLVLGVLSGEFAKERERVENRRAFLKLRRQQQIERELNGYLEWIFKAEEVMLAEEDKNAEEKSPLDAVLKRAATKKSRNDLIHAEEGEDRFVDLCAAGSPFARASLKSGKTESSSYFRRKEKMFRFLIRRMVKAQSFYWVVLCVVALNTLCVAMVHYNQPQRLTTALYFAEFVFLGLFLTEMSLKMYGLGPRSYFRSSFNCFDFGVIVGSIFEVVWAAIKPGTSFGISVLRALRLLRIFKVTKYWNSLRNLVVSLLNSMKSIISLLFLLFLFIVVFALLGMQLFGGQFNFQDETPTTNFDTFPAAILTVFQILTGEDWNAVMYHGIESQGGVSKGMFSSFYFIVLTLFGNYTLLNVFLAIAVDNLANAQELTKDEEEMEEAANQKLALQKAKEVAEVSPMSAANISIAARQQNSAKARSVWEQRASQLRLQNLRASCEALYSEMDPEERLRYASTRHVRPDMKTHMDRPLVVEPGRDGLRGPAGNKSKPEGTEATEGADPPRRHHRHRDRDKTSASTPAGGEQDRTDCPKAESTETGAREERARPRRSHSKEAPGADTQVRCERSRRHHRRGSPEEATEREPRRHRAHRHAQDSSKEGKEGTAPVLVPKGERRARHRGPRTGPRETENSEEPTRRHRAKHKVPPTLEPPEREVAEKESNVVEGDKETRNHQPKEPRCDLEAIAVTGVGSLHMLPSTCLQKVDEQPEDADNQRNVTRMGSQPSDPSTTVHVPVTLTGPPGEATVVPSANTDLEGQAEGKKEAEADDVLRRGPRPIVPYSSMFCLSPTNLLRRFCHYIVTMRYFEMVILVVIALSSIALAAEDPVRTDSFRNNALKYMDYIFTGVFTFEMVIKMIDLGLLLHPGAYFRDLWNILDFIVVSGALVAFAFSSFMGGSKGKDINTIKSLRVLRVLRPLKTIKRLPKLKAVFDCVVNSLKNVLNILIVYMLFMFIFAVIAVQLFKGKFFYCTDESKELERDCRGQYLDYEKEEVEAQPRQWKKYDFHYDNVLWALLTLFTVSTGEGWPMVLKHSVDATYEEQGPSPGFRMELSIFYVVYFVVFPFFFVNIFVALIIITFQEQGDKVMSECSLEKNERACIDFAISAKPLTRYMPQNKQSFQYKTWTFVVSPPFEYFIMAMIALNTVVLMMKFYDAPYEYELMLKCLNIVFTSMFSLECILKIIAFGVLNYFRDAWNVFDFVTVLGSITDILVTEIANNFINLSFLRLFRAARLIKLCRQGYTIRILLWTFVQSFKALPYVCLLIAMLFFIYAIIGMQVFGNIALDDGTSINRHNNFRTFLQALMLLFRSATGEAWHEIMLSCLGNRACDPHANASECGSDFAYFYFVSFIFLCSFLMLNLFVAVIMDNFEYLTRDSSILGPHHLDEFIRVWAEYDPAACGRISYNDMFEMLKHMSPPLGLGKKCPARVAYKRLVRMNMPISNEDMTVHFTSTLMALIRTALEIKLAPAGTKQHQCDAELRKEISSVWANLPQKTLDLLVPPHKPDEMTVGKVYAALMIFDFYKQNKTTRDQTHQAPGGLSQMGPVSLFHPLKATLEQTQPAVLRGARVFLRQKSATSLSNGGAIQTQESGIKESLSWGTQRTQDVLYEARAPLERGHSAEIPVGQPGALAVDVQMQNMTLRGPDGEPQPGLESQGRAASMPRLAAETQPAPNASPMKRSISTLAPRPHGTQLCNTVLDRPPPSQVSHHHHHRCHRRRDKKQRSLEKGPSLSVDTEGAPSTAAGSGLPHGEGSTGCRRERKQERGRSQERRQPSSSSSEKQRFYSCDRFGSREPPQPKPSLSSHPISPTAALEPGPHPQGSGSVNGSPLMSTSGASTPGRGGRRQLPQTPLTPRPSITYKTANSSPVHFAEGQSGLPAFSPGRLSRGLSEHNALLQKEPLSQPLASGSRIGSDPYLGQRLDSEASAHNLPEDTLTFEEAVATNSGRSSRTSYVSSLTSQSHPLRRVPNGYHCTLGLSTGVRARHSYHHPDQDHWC

`O=C(O)C1CCCNC1` (centres unmarked) [nipecotic acid, reference compound]: the IC50 with GABA transporter was 1600 nM.

In the case of `CCCOc1ccn2c(C(C)=O)cc(-c3ccccc3S(C)(=O)=O)c2c1` [GSK2801], the “effect on gene expression” value with K562 [1] and with MV4;11 [2] was “no significant effect” in each case.

In the test on Cl- channel (GABA-gated), `C=C(C)[C@@H]1[C@H]2OC(=O)[C@@H]1[C@]1(O)C[C@H]3O[C@]34C(=O)O[C@H]2[C@]14C` [picrotoxinin, reference compound] showed an IC50 of 150 nM.

On to `C[C@@H](O)[C@@H]1NC(=O)[C@H](Cc2ccc(O)cc2)NC(=O)[C@@H]2C[C@@H](O)CN2C(=O)[C@H](CC(N)=O)NC(=O)[C@@H]2CSSC[C@@H]3NC(=O)[C@H](CO)NC(=O)[C@H](CO)NC(=O)CNC(=O)[C@@H]4C[C@@H](O)CN4C(=O)[C@H](CO)NC(=O)[C@H](CCCCN)NC(=O)[C@@H](N)CSSC[C@H](NC(=O)[C@H](CSSC[C@@H](C(=O)N[C@@H](Cc4ccc(O)cc4)C(N)=O)NC(=O)[C@H](CCCN=C(N)N)NC(=O)[C@H](CCCCN)NC1=O)NC(=O)[C@H](CC(N)=O)NC(=O)[C@H](Cc1ccc(O)cc1)NC(=O)[C@H](CO)NC(=O)[C@H]([C@@H](C)O)NC(=O)[C@@H]1C[C@@H](O)CN1C(=O)[C@H](CO)NC3=O)C(=O)N[C@@H](CCCN=C(N)N)C(=O)N[C@@H](CO)C(=O)N2` [omega -conotoxin GVIA, reference compound], for which the IC50 against Ca2+ channel (N) was 0.0024 nM.

Consider (+)-JQ1 [reference compound], for which the IC50 with MV4;11 [3] was found to be 80.2 nM; in the test on KASUMI-1 it was 42.7 nM; in the test on OCI-AML3 it was 49.5 nM. In addition, in the test on K562 [4], the “effect on cell proliferation” value is recorded as “No significant effect”. For the same molecule, the “effect on cell cycle” value with K562 [5] is on record as “little effect on cell cycle”; with MV4;11 [6], “distinct G1 arrest with reduced S-phase populations”.
